# Results: US20250108038A1 (priority 2023, published 2025)
# Read-outs that look alike come from different tables or passages of the source.
# Tests used:
# [1] = physchem; conditions: kinetic from dmso stock
# [2] = target: T1, CYP1A2 (Homo sapiens, UniProt P05177); assay: in vitro; conditions: both, microsomes, pH 7.4
# T1 sequence (P05177 1-516): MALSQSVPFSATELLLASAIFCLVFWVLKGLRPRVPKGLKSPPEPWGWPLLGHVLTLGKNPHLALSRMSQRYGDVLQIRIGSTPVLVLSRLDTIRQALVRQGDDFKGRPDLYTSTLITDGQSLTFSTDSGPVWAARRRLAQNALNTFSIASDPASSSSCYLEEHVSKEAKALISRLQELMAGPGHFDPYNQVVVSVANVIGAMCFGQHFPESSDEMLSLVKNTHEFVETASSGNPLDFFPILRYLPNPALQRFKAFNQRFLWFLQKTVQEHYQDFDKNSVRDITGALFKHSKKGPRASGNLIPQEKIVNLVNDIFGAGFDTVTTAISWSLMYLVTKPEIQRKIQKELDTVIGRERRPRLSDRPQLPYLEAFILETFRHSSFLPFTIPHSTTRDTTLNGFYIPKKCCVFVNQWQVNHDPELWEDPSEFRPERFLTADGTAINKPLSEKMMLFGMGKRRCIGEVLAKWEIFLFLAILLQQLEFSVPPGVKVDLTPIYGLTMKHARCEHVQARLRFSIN
# [3] = target: T2, CYP2D6 (Homo sapiens, UniProt P10635); assay: in vitro; conditions: both, pH 7.4
# [4] = target: T2, CYP2D6; assay: biochemical
# [5] = Stability in components of human blood; type: in vitro ADME; conditions: 0.5 mM, 37° C., 0-120 min
# Method: FIG. 3A. […] Compound I-19 in components of human blood. Red blood cells and plasma were isolated from whole blood. […] Values represent mean+SEM of n=3 separate experiments.
# FIG. 3B. Stability of Compound I-4 in components of human blood. Red blood cells and plasma were isolated from whole blood. […] Values represent mean+SEM of n=3 separate experiments.
# Human and rat blood were centrifuged to separate out red blood cells at 1174×g for 15 min. The upper plasma level was aspirated with a micropipette and placed in a bleach solution for disposal. The RBC pellet was resuspended in sterile isotonic saline. The pellet was gently resuspended by rocking the tube. The sample was then centrifuged again to collect the RBC pellet and then resuspended and washed one more time following the same procedure. A total of three was done. Following the last wash and centrifugation, the RBCs were resuspended with PBS; and mixed by inversion. Aliquots of the resuspended and washed RBCs were then placed into 4 reaction tubes. These tubes were centrifuged to collect the RBCs. The fluid level was marked on each tube, then the supernatant was aspirated off and the cells resuspended with room temperature PBS pH 7.4 to the original mark. An aliquot of the RBC suspension was added to four sterile tubes containing PBS pH 7.4 at room temperature. […]
# [6] = tested on: C57BL/6 mice; assay: Tail Suspension Test; type: in vivo, mouse; conditions: for Dunnett's Multiple Comparison Test Mean Diff., immobility on the TST: percent immobility
# Excerpt: The Tail Suspension Test is a mouse behavioral test useful for screening for potential antidepressant drugs. The tail suspension test is an experimental method used in scientific research to measure a state of being helpless in rodents, especially in mice. It is based on the observation that if a mouse is subjected to short term inescapable stress, then it will stop struggling. Immobility is quantified by measuring the amount of time lacking whole-body activity.
# A cohort of 32 adult male mice was used for locomotor activity and a separate cohort of 40 male mice were used for tail suspension (C57BL/6, 7-8 weeks old; body weights 18-25 g, Charles River Laboratories). Upon arrival at the facility, animals were group-housed (5/cage) with access to food and water ad libitum. Animals were maintained on a 12/12-hour light/dark cycle in a temperature—(22±2° C.) and humidity—(approx. 50%) controlled room. Animals were numbered consecutively by tail ID marker in each home cage. Each home cage was identified by a colored ID card indicating the study number, sex, animal numbers and date of birth.
# Animals (8/group) were injected (10 mL/kg, ip) 30 min prior to the TST. For locomotor activity monitoring, mice were injected (10 mL/kg, ip; around 12-1 pm) after a full 24 hr period of recordings were collected for baseline activity. For both locomotor activity recordings and TST, PV-03446 doses included 0.3, 1, 3, and 10 mg/kg.
# Tail Suspension Test: A piezoelectric sensor operated by the SmartCage system was utilized and video recording was conducted for scoring. Once animals were acclimated to the testing room, the TST was initiated by placing the tail of the test mouse onto the piezoelectric sensor-board and hanging the mouse upside down. The recording period was initiated once the mouse was upside down and lasted for 6 min. At the end of the recording period, the mouse was removed from the recording device and returned to its home cage. The immobilized time, indicating depression-like behavior, was quantified using manual scoring of the video recording from 120 seconds to 360 seconds during the TST. The percent immobility time was calculated as (immobility time (seconds)/240 seconds)*100.
# Group differences found to have normal distribution were evaluated using a 1-way ANOVA followed by a Dunnett's Multiple Comparison Test to compare all treatment groups to the vehicle control. Statistical significance was set at p≤0.05.
# [7] = target: CYP3A4 (Homo sapiens, UniProt P08684); conditions: for Inhibition at Highest Test Article Concentration: 3A4, at 50 μM; for IC50: pooled human liver microsomes, 30 min
# Chain of CYP3A4 (P08684 whole entry): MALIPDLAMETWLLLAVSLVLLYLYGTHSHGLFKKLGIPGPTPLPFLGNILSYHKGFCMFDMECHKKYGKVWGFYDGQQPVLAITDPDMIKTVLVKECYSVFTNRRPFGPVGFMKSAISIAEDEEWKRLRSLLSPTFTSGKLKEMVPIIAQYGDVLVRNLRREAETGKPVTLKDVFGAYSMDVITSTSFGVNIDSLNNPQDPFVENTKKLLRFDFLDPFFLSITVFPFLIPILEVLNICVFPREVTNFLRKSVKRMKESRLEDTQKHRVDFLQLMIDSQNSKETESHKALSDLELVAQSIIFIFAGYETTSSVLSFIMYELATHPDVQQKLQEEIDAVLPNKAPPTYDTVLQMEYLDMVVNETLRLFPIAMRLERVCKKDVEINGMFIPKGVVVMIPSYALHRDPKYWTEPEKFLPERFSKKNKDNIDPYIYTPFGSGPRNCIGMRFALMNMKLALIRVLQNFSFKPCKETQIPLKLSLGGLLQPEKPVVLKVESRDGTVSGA
# T2 sequence (P10635 whole entry): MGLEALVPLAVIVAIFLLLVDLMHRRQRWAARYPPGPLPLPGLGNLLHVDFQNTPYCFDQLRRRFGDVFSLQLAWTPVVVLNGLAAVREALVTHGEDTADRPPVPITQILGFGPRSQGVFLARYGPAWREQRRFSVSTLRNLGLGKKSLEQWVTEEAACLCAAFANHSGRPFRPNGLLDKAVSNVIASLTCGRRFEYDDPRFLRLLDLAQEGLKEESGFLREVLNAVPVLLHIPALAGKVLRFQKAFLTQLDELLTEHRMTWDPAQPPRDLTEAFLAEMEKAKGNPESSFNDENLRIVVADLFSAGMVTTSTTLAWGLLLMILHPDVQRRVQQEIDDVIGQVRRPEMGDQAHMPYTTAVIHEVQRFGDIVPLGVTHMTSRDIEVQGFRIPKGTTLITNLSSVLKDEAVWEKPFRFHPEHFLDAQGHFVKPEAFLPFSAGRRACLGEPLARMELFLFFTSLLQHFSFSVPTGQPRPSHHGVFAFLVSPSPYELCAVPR
smiles,measurement,setting,value
"OC1(c2ccc(Cl)cc2)c2ccccc2C2=NCCN21 (stereo not shown) [Compound A, 5-(4-chlorophenyl)-2,3-dihydroimidazo[1,2-b]isoindol-5-ol, reference compound]",solubility kinetic,"[1]; 32 °C, pH 7.4, aqueous buffer, transport buffer with sucrose for BCRP and MDR1 (pH 7.4, 32° C.)",≥ 50 µM
same,solubility kinetic,"[1]; 37 °C, pH 7.4, aqueous buffer, HBSS (pH 7.4) uptake assay buffer",≥ 30 µM
same,solubility kinetic,"[1]; 37 °C, pH 7.4, aqueous buffer, transport buffer for BSEP (pH 7.4)",≥ 35 µM
same,solubility kinetic,"[1]; 37 °C, pH 8, aqueous buffer, KH (pH 8.0) uptake assay buffer",≥ 30 µM
same,inhibition at 50 µM,[2],13.7%
same,inhibition at 10 µM,[3],70.8%
same,IC50,[4],4.16 µM
Clc1ccc(C2(OCC3OCCO3)c3ccccc3C3=NCCN32)cc1 (stereo not shown) [Compound I-19],% parent compound remaining,[5]; human red blood cells,time-dependent decrease in the amount of parent compound present
same,% parent compound remaining,[5]; human whole blood,time-dependent decrease in the amount of parent compound present
same,"One-way analysis of variance F, immobility on the TST","[6]; 0.3, 1.0, 3.0, 10.0 mg/kg IP vs control, 5 groups",4.71
same,immobility (%),"[6]; 0.3, 1.0, 3.0 and 10.0 mg/kg, IP, 30 min prior to TST",significant reduction in immobility (%) at all doses tested
same,decrease of immobility compared to vehicle,"[6]; 0.3-10 mg/kg IP, depending on the dose",26-38%
same,"Dunnett's Multiple Comparison Test Significant? P < 0.05?, immobility on the TST",[6]; Control vs 0.3 mg/kg IP,Yes
same,"Dunnett's Multiple Comparison Test q, immobility on the TST",[6]; Control vs 0.3 mg/kg IP,2.592
same,"Dunnett's Multiple Comparison Test Mean Diff., immobility on the TST",[6]; Control vs 0.3 mg/kg IP,19.9
same,"Dunnett's Multiple Comparison Test Significant? P < 0.05?, immobility on the TST",[6]; Control vs 1.0 mg/kg IP,Yes
same,"Dunnett's Multiple Comparison Test q, immobility on the TST",[6]; Control vs 1.0 mg/kg IP,3.739
same,"Dunnett's Multiple Comparison Test Mean Diff., immobility on the TST",[6]; Control vs 1.0 mg/kg IP,28.7
same,"Dunnett's Multiple Comparison Test Significant? P < 0.05?, immobility on the TST",[6]; Control vs 3.0 mg/kg IP,Yes
same,"Dunnett's Multiple Comparison Test q, immobility on the TST",[6]; Control vs 3.0 mg/kg IP,3.773
same,"Dunnett's Multiple Comparison Test Mean Diff., immobility on the TST",[6]; Control vs 3.0 mg/kg IP,28.96
same,"Dunnett's Multiple Comparison Test Significant? P < 0.05?, immobility on the TST",[6]; Control vs 10.0 mg/kg IP,Yes
same,"Dunnett's Multiple Comparison Test q, immobility on the TST",[6]; Control vs 10.0 mg/kg IP,2.626
same,"Dunnett's Multiple Comparison Test Mean Diff., immobility on the TST",[6]; Control vs 10.0 mg/kg IP,20.16
same,Inhibition at Highest Test Article Concentration,[7]; Midazolam,28.4 at 50 μM %
same,Inhibition at Highest Test Article Concentration,[7]; Testosterone,57.5 at 50 μM %
same,IC50,[7]; substrate midazolam,did not inhibit
same,IC50,[7]; substrate testosterone,did not inhibit
